Where a name gives a salt, the structure may show the parent alone. Read-outs that look alike come from different tables or passages of the source.
Details: for hygroscopicity / deliquescence by DVS profile (in words): hydrobromide salt
Description: DVS analysis was performed on two of the HCl salts of pridopidine (HCl salt of pridopidine batches A and B). A full two cycle sorption and desorption profile was obtained for a third HCl salt of pridopidine (hydrochloride salt of pridopidine batch C).
An additional run was performed in the mid-eighties relative humidity range in order to indentify the transition point in more detail. (See FIG. 9). […] Dynamic vapour sorption (DVS) measurements were conducted using a Q5000 SA from TA instruments.
Prior to the first sorption cycle the sample was equilibrated at 20% RH and the initial weight recorded. Samples were analyzed in an aluminium pan. Humidity was brought down to 0% RH and the sample dried until the weight had stabilized within a given limit. The temperature was held constant at 25° C. Maximum step time was 720 min. Gas flow was 200 cm^3/min.

Structure (SMILES)	weight gained between 0 and 95% RH (DVS), lost again during desorption (0-95% RH, two sorption/desorption cycles, 25° C.)	hygroscopicity / deliquescence by DVS profile (in words) (0-95% RH)	hygroscopicity / deliquescence by DVS profile (in words) (0-95% RH, listed as NS30016-HBr salt)	weight gained at the 95% relative humidity (RH) level (DVS) (95% RH, 25° C.)	weight gain at 90% relative humidity (DVS) (90% RH step, first sorption cycle)	state of specimen at the end of the DVS cycle (additional run with smaller steps in the mid-eighties RH range (80-90-80%))
Br.CCCN1CCC(c2cccc(S(C)(=O)=O)c2)CC1 [Pridopidine hydrobromide, 4-(3-methanesulfonyl-phenyl)-1-propyl-piperidine hydrobromide salt]	approximately 0.15%	non-hygroscopic and non-deliquescent	non-hygroscopic	less than 1%		
CCCN1CCC(c2cccc(S(C)(=O)=O)c2)CC1 [hydrochloride salt of pridopidine, hydrochloride salt of 4-(3-methanesulfonyl-phenyl)-1-propyl-piperidine, reference compound]					approximately 80%	completely dissolved
